The values that follow come from patent US10471046B2, “Method for treating, preventing, or reducing the risk of skin infection” (Melinta Subsidiary Corp., priority 2014, dated 2019).

The test system of this assay is S. aureus. Put plainly: Minimum inhibitory concentrations (MICs) for S. aureus of exemplary compounds (Table 2). The conditions noted are these: Staphylococcus aureus, minimum inhibitory concentrations for S. aureus; read-out: MICs. It counts as cell-based. The method, boiled down: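 MICs (μg/mL) against S. aureus come from microtiter-tray dilution susceptibility testing per NCCLS M7-A5, comparing growth with and without compound.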

≈ marks a conversion by molar mass, not a printed value.

For `CC(=O)NC[C@H]1CN(c2ccc(-c3ccc(CNCCc4cnn[nH]4)cc3)c(F)c2)C(=O)O1` [Compound 4266, N-[3-(2-Fluoro-4′-{[2-(3H-[1,2,3]triazol-4-yl)-ethylamino]-methyl}-biphenyl-4-yl)-2-oxo-oxazolidin-5-(S)-ylmethyl]-acetamide], the MIC was found to be 4 µg/mL (≈ 8.84 µM).

Consider `CC(=O)NC[C@H]1CN(c2ccc(-c3ccc(CNCc4cccc5ccccc45)cc3)c(F)c2)C(=O)O1` [Compound 4022, N-[3-(2-Fluoro-4′-{[(naphthalen-1-ylmethyl)-amino]-methyl}-biphenyl-4-yl)-2-oxo-oxazolidin-5-(S)-ylmethyl]-acetamide], for which the MIC was 4 µg/mL (≈ 8.04 µM).

`CC(=O)NC[C@H]1CN(c2ccc(-c3ccc([C@H](O)CN(CCC(F)(F)Cl)Cc4ccccc4)cc3)c(F)c2)C(=O)O1` [Compound 4249, N-[3-(4′-{2-[Benzyl-(3-chloro-3,3-difluoro-propyl)-amino]-1-(S)-hydroxy-ethyl}-2-fluoro-biphenyl-4-yl)-2-oxo-oxazolidin-5-(S)-ylmethyl]-acetamide]: the MIC turned out to be 8 µg/mL (≈ 13.6 µM).

On to `CC(=O)NC[C@H]1CN(c2ccc(-c3ccc(CNCCc4ccccn4)cc3)c(F)c2)C(=O)O1` [Compound 4087, N-(3-{2-Fluoro-4′-[(2-pyridin-2-yl-ethylamino)-methyl]-biphenyl-4-yl}-2-oxo-oxazolidin-5-(S)-ylmethyl)-acetamide], for which the MIC was 4 µg/mL (≈ 8.65 µM).

Regarding `CC(=O)NC[C@H]1CN(c2ccc(-c3ccc(CNC(=O)/C=C/c4cccn(C)c4=O)cc3)c(F)c2)C(=O)O1` [Compound 4194, N-{4′-[5-(S)-(Acetylamino-methyl)-2-oxo-oxazolidin-3-yl]-2′-fluoro-biphenyl-4-ylmethyl}-3-(1-methyl-2-oxo-1,2-dihydro-pyridin-3-yl)-acrylamide], the MIC stood at 2 µg/mL (≈ 3.86 µM).

As for `CC(=O)NC[C@H]1CN(c2ccc(-c3ccc(C(=O)NCc4ccncc4)cc3)c(F)c2)C(=O)O1` [Compound 4102, 4′-[5-(S)-(Acetylamino-methyl)-2-oxo-oxazolidin-3-yl]-2′-fluoro-biphenyl-4-carboxylic acid (pyridin-4-ylmethyl)-amide], the MIC was determined as 2 µg/mL (≈ 4.32 µM).

As to `CC(=O)NC[C@H]1CN(c2ccc(-c3ccc([S+]([O-])Cc4ccncc4)cc3)c(F)c2)C(=O)O1` (stereo partly drawn) [Compound 3002, N-{3-[2-Fluoro-4′-(pyridin-4-ylmethanesulfinyl)-biphenyl-4-yl]-2-oxo-oxazolidin-5-(S)-ylmethyl}-acetamide], the MIC came out at 1 µg/mL (≈ 2.14 µM).

In the case of `CC(=O)NC[C@H]1CN(c2ccc(-c3ccc(/C=N/N4CCOCC4)cc3)c(F)c2)C(=O)O1` [Compound 2056, N-{3-[2-Fluoro-4′-(morpholin-4-yliminomethyl)-biphenyl-4-yl]-2-oxo-oxazolidin-5-(S)-ylmethyl}-acetamide], the MIC came out at 0.25 µg/mL (≈ 0.568 µM).

On to `CCSc1nnnn1Cc1ccc(-c2ccc(N3C[C@H](CNC(C)=O)OC3=O)cc2F)cc1` [Compound 1081, N-{3-[4′-(5-Ethylsulfanyl-tetrazol-1-ylmethyl)-2-fluoro-biphenyl-4-yl]-2-oxo-oxazolidin-5-(S)-ylmethyl}-acetamide], for which the MIC turned out to be 2 µg/mL (≈ 4.25 µM).

For the compound `CC(=O)NC[C@H]1CN(c2ccc(-c3ccc(C(C)NCc4ccoc4)cc3)c(F)c2)C(=O)O1` (mixture of isomers) [Compound 4144, N-[3-(2-Fluoro-4′-{1-(R/S)-[(furan-3-ylmethyl)-amino]-ethyl}-biphenyl-4-yl)-2-oxo-oxazolidin-5-(S)-ylmethyl]-acetamide], the MIC amounted to 4 µg/mL.

As for `CC(=O)NC[C@H]1CN(c2ccc(-c3ccc(CNCc4cnc5ccccc5c4)cc3)c(F)c2)C(=O)O1` [Compound 4021, N-[3-(2-Fluoro-4′-{[(quinolin-3-ylmethyl)-amino]-methyl}-biphenyl-4-yl)-2-oxo-oxazolidin-5-(S)-ylmethyl]-acetamide], the MIC was found to be 0.25 µg/mL (≈ 0.501 µM).

As for `CC(=O)NC[C@H]1CN(c2ccc(-c3ccc(CNC(=O)C4CC4)cc3)c(F)c2)C(=O)O1` [Compound 4319, Cyclopropanecarboxylic acid {4′-[5-(S)-(acetylamino-methyl)-2-oxo-oxazolidin-3-yl]-2′-fluoro-biphenyl-4-ylmethyl}-amide], the MIC worked out at 16 µg/mL (≈ 37.6 µM).

Take `CC(=O)NC[C@H]1CN(c2ccc(-c3ccc(CNCc4cccnc4N4CCOCC4)cc3)c(F)c2)C(=O)O1` [Compound 4117, N-[3-(2-Fluoro-4′-{[(2-morpholin-4-yl-pyridin-3-ylmethyl)-amino]-methyl}-biphenyl-4-yl)-2-oxo-oxazolidin-5-(S)-ylmethyl]-acetamide]: the MIC turned out to be 8 µg/mL (≈ 15 µM).

Turning to `CC(=O)NC[C@H]1CN(c2ccc(-c3ccc(CNCc4nc(C)no4)cc3)c(F)c2)C(=O)O1` [Compound 4140, N-[3-(2-Fluoro-4′-{[(3-methyl-[1,2,4]oxadiazol-5-ylmethyl)-amino]-methyl}-biphenyl-4-yl)-2-oxo-oxazolidin-5-(S)-ylmethyl]-acetamide], the MIC stood at 2 µg/mL (≈ 4.41 µM).

Turning to `CCc1ccc(CNCc2ccc(-c3ccc(N4C[C@H](CNC(C)=O)OC4=O)cc3F)cc2)s1` [Compound 4162, N-[3-(4′-{[(5-Ethyl-thiophen-2-ylmethyl)-amino]-methyl}-2-fluoro-biphenyl-4-yl)-2-oxo-oxazolidin-5-(S)-ylmethyl]-acetamide], the MIC worked out at 2 µg/mL (≈ 4.15 µM).

Regarding `CC(=O)NC[C@H]1CN(c2ccc(-c3ccc(CN(C)C(=O)c4ccc5cc[nH]c5c4)cc3)c(F)c2)C(=O)O1` [Compound 4050, 1H-Indole-6-carboxylic acid {4′-[5-(S)-(acetylamino-methyl)-2-oxo-oxazolidin-3-yl]-2′-fluoro-biphenyl-4-ylmethyl}-methyl-amide], the MIC came to 1 µg/mL (≈ 1.94 µM).

For `CC(=O)NC[C@H]1CN(c2ccc(-c3ccc(NC(=O)NCCCn4ccnc4)cc3)c(F)c2)C(=O)O1` [Compound 6001, N-(3-{2-Fluoro-4′-[3-(3-imidazol-1-yl-propyl)-ureido]-biphenyl-4-yl}-2-oxo-oxazolidin-5-(S)-ylmethyl)-acetamide], the MIC was 16 µg/mL (≈ 32.4 µM).

On to `CC(=O)NC[C@H]1CN(c2ccc(-c3ccc(C[S+]([O-])c4cnn[nH]4)cc3)c(F)c2)C(=O)O1` (stereo partly drawn) [Compound 2021, N-{3-[2-Fluoro-4′-(3H-[1,2,3]triazole-4-sulfinylmethyl)-biphenyl-4-yl]-2-oxo-oxazolidin-5-(S)-ylmethyl}-acetamide], for which the MIC is 2 µg/mL (≈ 4.37 µM).

Consider `CC(=O)NC[C@H]1CN(c2ccc(-c3ccc(C[S+]([O-])Cc4ccccn4)cc3)c(F)c2)C(=O)O1` (stereo partly drawn) [Compound 4217, N-{3-[2-Fluoro-4′-(pyridin-2-ylmethanesulfinylmethyl)-biphenyl-4-yl]-2-oxo-oxazolidin-5-(S)-ylmethyl}-acetamide], for which the MIC was 1 µg/mL (≈ 2.08 µM).

In the case of `CC(=O)NC[C@H]1CN(c2ccc(-c3ccc(Cn4nnc5c(=O)[nH]cnc54)cc3)c(F)c2)C(=O)O1` [Compound 1027, N-{3-[2-Fluoro-4′-(7-oxo-6,7-dihydro-[1,2,3]triazolo[4,5-d]pyrimidin-3-ylmethyl)-biphenyl-4-yl]-2-oxo-oxazolidin-5-(S)-ylmethyl}-acetamide], the MIC is 1 µg/mL (≈ 2.09 µM).

With `COc1cc(CN(C)Cc2ccncc2)ccc1-c1ccc(N2C[C@H](CNC(C)=O)OC2=O)cc1F` [Compound 4033, N-(3-{2-Fluoro-2′-methoxy-4′-[(methyl-pyridm-4-ylmethyl-amino)-methyl]-biphenyl-4-yl}-2-oxo-oxazolidin-5-(S)-ylmethyl)-acetamide], the MIC is 8 µg/mL (≈ 16.2 µM).

Take `CSC1=NCCN1Cc1ccc(-c2ccc(N3C[C@H](CNC(C)=O)OC3=O)cc2F)cc1` [Compound 1078, N-{3-[2-Fluoro-4′-(2-methylsulfanyl-4,5-dihydro-imidazol-1-ylmethyl)-biphenyl-4-yl]-2-oxo-oxazolidin-5-(S)-ylmethyl}-acetamide]: the MIC turned out to be 2 µg/mL (≈ 4.38 µM).

For `O=C1O[C@@H](Cn2ccnn2)CN1c1ccc(-c2ccc(CNCCSc3cnn[nH]3)cc2)c(F)c1` [Compound 5007, 3-(2-Fluoro-4′-{[2-(3H-[1,2,3]triazol-4-ylsulfanyl)-ethylamino]-methyl}-biphenyl-4-yl)-5-(R)-[1,2,3]triazol-1-ylmethyl-oxazolidin-2-one], the MIC stood at 0.25 µg/mL (≈ 0.506 µM).

For the compound `CCOC(=O)c1cnn(Cc2ccc(-c3ccc(N4C[C@H](CNC(C)=O)OC4=O)cc3F)cc2)c1` [Compound 1049, 1-{4′-[5-(S)-(Acetylamino-methyl)-2-oxo-oxazolidin-3-yl]-2′-fluoro-biphenyl-4-ylmethyl}-1H-pyrazole-4-carboxylic acid ethyl ester], the MIC was 0.5 µg/mL (≈ 1.04 µM).

As for `NC[C@H]1CN(c2ccc(-c3ccc(Cn4cnnn4)cc3)c(F)c2)C(=O)O1` [Compound 1032, 5-(S)-Aminomethyl-3-(2-fluoro-4′-tetrazol-1-ylmethyl-biphenyl-4-yl)-oxazolidin-2-one], the MIC worked out at 32 µg/mL (≈ 86.9 µM).

For the compound `CC(=O)NC[C@H]1CN(c2ccc(-c3ccc(CNCc4ncon4)cc3)c(F)c2)C(=O)O1` [Compound 4233, N-[3-(2-Fluoro-4′-{[([1,2,4]oxadiazol-3-ylmethyl)-amino]-methyl}-biphenyl-4-yl)-2-oxo-oxazolidin-5-(S)-ylmethyl]-acetamide], the MIC was found to be 0.5 µg/mL (≈ 1.14 µM).

Consider `CC(=O)NC[C@H]1CN(c2ccc(-c3ccc(C(=O)NCc4ncsn4)cc3)c(F)c2)C(=O)O1` [Compound 4225, 4′-[5-(S)-(Acetylamino-methyl)-2-oxo-oxazolidin-3-yl]-2′-fluoro-biphenyl-4-carboxylic acid ([1,2,4]thiadiazol-3-ylmethyl)-amide], for which the MIC worked out at 1 µg/mL (≈ 2.13 µM).

Regarding `CC(=O)NC[C@H]1CN(c2ccc(-c3ccc(C(=O)NCc4ccccn4)c(F)c3)c(F)c2)C(=O)O1` [Compound 4190, 4′-[5-(S)-(Acetylamino-methyl)-2-oxo-oxazolidin-3-yl]-3,2′-difluoro-biphenyl-4-carboxylic acid (pyridin-2-ylmethyl)-amide], the MIC came to 1 µg/mL (≈ 2.08 µM).

Turning to `CC(=O)NC[C@H]1CN(c2ccc(-c3ccc(CNCC(O)c4ccc(F)cc4)cc3)c(F)c2)C(=O)O1` (mixture of isomers) [Compound 4275, N-[3-(2-Fluoro-4′-{[2-(4-fluoro-phenyl)-2-(R/S)-hydroxy-ethylamino]-methyl}-biphenyl-4-yl)-2-oxo-oxazolidin-5-(S)-ylmethyl]-acetamide], the MIC turned out to be 0.5 µg/mL.
